Measurements reported in publication PMC10855388, “Small-Molecule-Directed Endogenous Regeneration of Visual Function in a Mammalian Retinal Degeneration Model” (International Journal of Molecular Sciences, 2024).

Legend:
Test in all cases: KinaseProfiler in vitro kinase panel ([…] human kinases), single concentration […]
Type in all cases: biochemical
[1] = target: T1, PKG1α (Homo sapiens, UniProt Q13976)
T1 construct: gene PRKG1
T1 sequence (Q13976 2-671): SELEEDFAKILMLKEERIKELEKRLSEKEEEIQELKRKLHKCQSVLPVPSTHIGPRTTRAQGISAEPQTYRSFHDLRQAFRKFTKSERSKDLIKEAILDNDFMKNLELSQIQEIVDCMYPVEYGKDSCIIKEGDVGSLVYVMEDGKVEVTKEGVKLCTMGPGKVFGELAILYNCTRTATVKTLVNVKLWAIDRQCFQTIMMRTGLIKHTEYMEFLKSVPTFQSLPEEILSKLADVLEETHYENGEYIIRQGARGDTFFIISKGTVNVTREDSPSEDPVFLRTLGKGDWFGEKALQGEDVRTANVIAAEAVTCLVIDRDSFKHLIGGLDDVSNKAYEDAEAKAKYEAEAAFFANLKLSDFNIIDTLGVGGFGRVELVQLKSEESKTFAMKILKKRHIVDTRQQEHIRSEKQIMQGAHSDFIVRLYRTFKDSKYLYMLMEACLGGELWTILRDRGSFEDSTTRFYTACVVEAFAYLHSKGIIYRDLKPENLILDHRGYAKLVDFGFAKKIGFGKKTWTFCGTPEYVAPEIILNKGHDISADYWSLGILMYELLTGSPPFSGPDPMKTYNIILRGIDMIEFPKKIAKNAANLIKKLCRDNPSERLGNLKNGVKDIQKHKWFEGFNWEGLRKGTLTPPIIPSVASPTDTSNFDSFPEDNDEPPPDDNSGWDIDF

[2] = target: T2, p70S6K (Homo sapiens, UniProt P23443)
T2 construct: gene RPS6KB1
T2 sequence (P23443 whole entry): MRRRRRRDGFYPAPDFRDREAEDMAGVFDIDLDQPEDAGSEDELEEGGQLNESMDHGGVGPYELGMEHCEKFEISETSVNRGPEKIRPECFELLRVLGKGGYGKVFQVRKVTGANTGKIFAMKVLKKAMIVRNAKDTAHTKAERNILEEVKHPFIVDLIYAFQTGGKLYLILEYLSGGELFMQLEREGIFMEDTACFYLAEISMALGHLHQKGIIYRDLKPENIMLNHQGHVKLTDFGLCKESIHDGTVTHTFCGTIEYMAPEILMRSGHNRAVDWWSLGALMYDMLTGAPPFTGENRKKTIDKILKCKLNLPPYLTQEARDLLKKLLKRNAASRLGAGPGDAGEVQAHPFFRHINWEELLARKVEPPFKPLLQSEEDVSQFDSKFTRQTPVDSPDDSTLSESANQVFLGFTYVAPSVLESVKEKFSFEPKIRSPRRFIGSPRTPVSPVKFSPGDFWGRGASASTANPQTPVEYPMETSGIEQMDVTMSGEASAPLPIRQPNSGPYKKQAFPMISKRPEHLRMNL

[3] = target: T3, PKA (Homo sapiens, UniProt P17612)
T3 construct: gene PRKACA

[4] = target: T4, ROCK-I (Homo sapiens, UniProt Q13464)
T4 construct: gene ROCK1
T4 sequence (Q13464 2-1354): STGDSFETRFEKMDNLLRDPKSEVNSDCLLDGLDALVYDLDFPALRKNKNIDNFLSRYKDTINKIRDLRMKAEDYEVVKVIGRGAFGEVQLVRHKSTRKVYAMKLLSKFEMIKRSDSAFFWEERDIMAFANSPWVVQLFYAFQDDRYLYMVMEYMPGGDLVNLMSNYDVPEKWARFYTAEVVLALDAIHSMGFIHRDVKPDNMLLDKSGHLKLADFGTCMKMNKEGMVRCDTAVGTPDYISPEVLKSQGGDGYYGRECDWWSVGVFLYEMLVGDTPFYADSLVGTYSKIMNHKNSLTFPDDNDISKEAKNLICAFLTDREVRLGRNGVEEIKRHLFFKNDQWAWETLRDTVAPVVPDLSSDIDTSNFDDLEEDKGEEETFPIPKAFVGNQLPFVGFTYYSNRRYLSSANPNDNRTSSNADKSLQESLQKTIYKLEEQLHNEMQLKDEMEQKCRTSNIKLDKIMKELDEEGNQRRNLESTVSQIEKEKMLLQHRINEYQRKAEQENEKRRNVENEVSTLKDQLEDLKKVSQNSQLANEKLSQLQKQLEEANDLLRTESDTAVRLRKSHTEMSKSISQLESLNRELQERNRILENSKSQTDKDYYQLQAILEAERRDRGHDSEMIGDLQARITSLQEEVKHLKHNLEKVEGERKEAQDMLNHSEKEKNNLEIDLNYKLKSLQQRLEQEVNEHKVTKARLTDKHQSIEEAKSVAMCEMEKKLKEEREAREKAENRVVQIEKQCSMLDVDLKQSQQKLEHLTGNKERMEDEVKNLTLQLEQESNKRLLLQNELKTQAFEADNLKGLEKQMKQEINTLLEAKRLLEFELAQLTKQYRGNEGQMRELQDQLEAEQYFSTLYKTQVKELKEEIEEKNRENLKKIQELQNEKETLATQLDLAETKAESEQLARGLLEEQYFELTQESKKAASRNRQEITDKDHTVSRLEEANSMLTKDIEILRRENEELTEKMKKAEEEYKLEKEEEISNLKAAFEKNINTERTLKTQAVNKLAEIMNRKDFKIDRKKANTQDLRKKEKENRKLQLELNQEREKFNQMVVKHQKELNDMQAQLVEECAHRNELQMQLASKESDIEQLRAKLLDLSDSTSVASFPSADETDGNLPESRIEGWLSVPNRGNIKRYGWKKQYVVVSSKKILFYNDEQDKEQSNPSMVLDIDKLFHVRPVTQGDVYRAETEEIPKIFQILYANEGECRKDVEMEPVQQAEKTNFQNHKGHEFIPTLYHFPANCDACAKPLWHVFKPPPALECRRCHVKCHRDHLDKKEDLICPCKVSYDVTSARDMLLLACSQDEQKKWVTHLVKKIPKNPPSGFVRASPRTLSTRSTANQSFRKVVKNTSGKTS

Measured: inhibition at 5 µM

COc1cc(NC(=O)C2COc3ccccc3C2)ccc1-c1cnco1 (stereo not shown) [CompA, CompoundA]
> 75%: all assays above
